Experimental data published in patent US7645785B2, “Benzimidazole derivatives” (Hoffmann-La Roche Inc., priority 2006, dated 2010).

Legend:
[1] = target: T1, FXR-LBD (pFA-FXR-LBD, Gal4 fusion) in BHK21 cells (Homo sapiens, UniProt Q96RI1); experiment: Luciferase transcriptional reporter gene assay; format: cell-based
T1 sequence (Q96RI1 262-486 limits assumed): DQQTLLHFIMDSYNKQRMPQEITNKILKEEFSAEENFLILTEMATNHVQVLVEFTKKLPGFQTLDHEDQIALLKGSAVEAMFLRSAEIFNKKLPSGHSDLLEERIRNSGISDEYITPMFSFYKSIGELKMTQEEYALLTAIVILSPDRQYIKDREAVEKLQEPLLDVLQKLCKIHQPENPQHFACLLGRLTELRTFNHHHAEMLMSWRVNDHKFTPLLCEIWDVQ
From the text: (§1) Bacterial and mammalian expression vectors were constructed to produce glutathione-s-transferase (GST) and Gal4 DNA binding domain (GAL) proteins fused to the ligand binding domain (LBD) of human FXR (aa 193-473). To accomplish this, the portions of the sequences encoding the FXR LBD were amplified by polymerase chain reaction (PCR) from a full-length clone by PCR and then subcloned into the plasmid vectors. The final clone was verified by DNA sequence analysis.
Luciferase Transcriptional Reporter Gene Assays
Baby hamster kidney cells (BHK21 ATCC CCL10) were grown in DMEM medium containing 10% FBS at 37° C. in a […]:5% CO2 atmosphere. Cells were seeded in 6-well plates at a density of 10^5 cells/well and then transfected with the pFA-FXR-LBD or expression plasmid plus a reporter plasmid. […] Six hours following transfection, the cells were harvested by trypsinization and seeded in 96-well plates at a density of 10^4 cells/well. […] Luminescence, as a measure of luciferase activity, was detected in a Packard TopCount. Transcriptional activation in the presence of a test substance was expressed as fold-change in luminescence compared to that of cells incubated in the absence of the substance. EC50 values were calculated using the XLfit program (ID Business Solutions Ltd. UK).

[2] = target: T2, FXR ligand binding domain (GST-FXR LBD fusion protein) (Homo sapiens, UniProt Q96RI1); experiment: Radioligand binding assay (scintillation proximity, radioligand displacement)
T2 construct: made in house; host or cells: E. coli BL21 (pLysS)
T2 sequence (Q96RI1 193-472 isoform Q96RI1-2 limits assumed): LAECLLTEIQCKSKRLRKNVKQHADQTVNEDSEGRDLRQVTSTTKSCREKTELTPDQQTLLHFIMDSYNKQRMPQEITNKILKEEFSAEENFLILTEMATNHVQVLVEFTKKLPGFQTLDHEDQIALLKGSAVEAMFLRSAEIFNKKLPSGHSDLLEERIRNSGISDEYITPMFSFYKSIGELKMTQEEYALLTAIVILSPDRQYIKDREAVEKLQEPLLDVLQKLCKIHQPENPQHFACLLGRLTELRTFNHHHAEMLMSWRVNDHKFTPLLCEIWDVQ
Experimental: The following tests were carried out in order to determine the activity of the compounds of formula (I). Background information on the binding assay can be found in: Nichols J S et al. “Development of a scintillation proximity assay for peroxisome proliferator-activated receptor gamma ligand binding domain”, (1998) Anal. Biochem. 257: 112-119.
as §1
The induction, expression, and subsequent purification of GST-LBD fusion protein was performed in E. coli strain BL21 (pLysS) cells by standard methods (Current Protocols in Molecular Biology, Wiley Press, ed. Ausubel et al).
Radioligand Binding Assay
Binding of test substances to the FXR ligand binding domain was assessed in a radioligand displacement assay. […] All binding assays were performed in 96-well plates and the amount of bound ligand was measured on a Packard TopCount using OptiPlates (Packard). […]

Row | EC50 [1] [nM] | IC50 [2] [nM] | SMILES
1 | 86 | 500 | COc1ccc(-c2nc3ccccc3n2C(C(=O)NCc2ccccc2)C2CCCCC2)c(OC)c1 (stereo not shown) [Example 34, N-benzyl-2-cyclohexyl-2-[2-(2,4-dimethoxy-phenyl)-benzoimidazol-1-yl]-acetamide]
2 | 700 | 1500 | CC(C)CC(C(=O)NC1CCCCC1)n1c(-c2ccc(Cl)cc2)nc2ccccc21 (stereo not shown) [Example 2, 2-[2-(4-chloro-phenyl)-benzoimidazol-1-yl]-4-methyl-pentanoic acid cyclohexylamide]
